Assay results taken from patent publication US7202093B2, “Method for labeling phosphorylated peptides, method for selectively adsorbing phosphorylated peptides, complex compounds used in the methods, process for producing the complex compounds, and raw material compounds for the complex compounds” (Kabushiki Kaisha Nard Kenkyusho, priority 2003, dated 2007).
No end group written: not given here.

Experiments:
Assay type in all cases: binding
[1] = system: α-casein (phosphorylated), β-casein (phosphorylated), pepsin (phosphorylated); assay: 10% native-polyacrylamide gel electrophoresis, gel stained and imaged by fluoro image analyzer (Experimental Example 3); conditions: ten protein samples
Protocol: First, prepared were gels for electrophoresis, pH buffer for electrophoresis, and a coloring solution for dissolving samples under the same condition as in Experimental Example 1.
Next, 2 μg each of 1: Bovine Serum Albumin, 2: Human Serum Albumin, 3: carbonic anhydrase, 4: β-galactosidase, 5: α-casein (phosphorylated), 6: α-casein (de-phosphorylated), 7: β-casein (phosphorylated), 8: β-casein (de-phosphorylated), 9: pepsin (phosphorylated), and 10: pepsin (de-phosphorylated) was dissolved in the coloring solution to prepare samples. The respective samples were plotted on the gel. Then, a constant electric current of 40 mA was applied until the coloring marker was flowed.
The obtained gel was immersed in a 10 mM Tris-acetate buffer (pH=7.4) containing 1 μM of N,N,N′-tri(2-pyridylmethyl)-N′-[5-N″-(2-N-5-fluoresceinylthioureidoethyl)carbamoyl-2-pyridylmethyl]-1,3-diamopropane-2-ol obtained in Production Example 8-1 and 100 μM zinc acetate for 30 minutes. Thereafter, the gel was taken out from the solution. This gel was washed with 100 mL of 10 mM Tris-acetate buffer (pH=7.4) for 10 minutes twice. Thereafter, a fluorescent image of the gel was photographed by using a fluoro image analyzer FLA-5000 (Fuji Photo Film Co., Ltd.) at an excitation wavelength of 473 nm with use of a fluorescence detecting filter of 510 nm. […]

[2] = system: inventive complex compound (compound of Production Example 3-1 + zinc acetate) bonded to Streptavidin agarose; assay: Selective adsorption of peptides on Streptavidin agarose carrying the inventive zinc complex, fractions quantified by HPLC (Experimental Example 2); conditions: for isolation/recovery rate of the peptide to the total amount, fraction 1: filtrate of sample in 5.0 mM Tris-acetate buffer pH 7.4; for isolation/recovery rate of the peptide to the total amount, fraction 1 / isolation/recovery rate of the peptide to the total amount, fraction 5 / isolation/recovery rate of the peptide to the total amount, fraction 2 / isolation/recovery rate of the peptide to the total amount, fraction 6 / isolation/recovery rate of the peptide to the total amount, fraction 3 / isolation/recovery rate of the peptide to the total amount, fraction 4: agarose with zinc complex of Production Example 3-1; for isolation/recovery rate of the peptide to the total amount, fraction 5: first filtration with 1.0 mM phosphoric acid-sodium hydroxide buffer pH 7.4, 0.50M NaNO3; for isolation/recovery rate of the peptide to the total amount, fraction 2: first filtration with 5.0 mM Tris-acetate buffer pH 7.4, 0.50M NaNO3; for isolation/recovery rate of the peptide to the total amount, fraction 6: second filtration with 1.0 mM phosphoric acid-sodium hydroxide buffer pH 7.4, 0.50M NaNO3; for isolation/recovery rate of the peptide to the total amount, fraction 3: second filtration with 5.0 mM Tris-acetate buffer pH 7.4, 0.50M NaNO3; for isolation/recovery rate of the peptide to the total amount, fraction 4: third filtration with 5.0 mM Tris-acetate buffer pH 7.4, 0.50M NaNO3
Protocol: (§1) The suspension (0.3 mL) containing Streptavidin agarose (quantity of the bonded moiety of biotin: 60 to 120 nmol/mL) and a buffer (Sigma-Aldrich Co.) was charged in a centrifugal filter unit (volume: 0.5 mL filter pore diameter: 0.22 μm). The filter unit was subjected to centrifugal separation at centrifugal acceleration of 2,000×g for 15 seconds, followed by filtration of the suspension. 5.0 mM Tris-acetate buffer (pH=7.4, 0.30 mL) was charged in the filter unit, then the filter unit was subjected to centrifugal separation at 2,000×g for 15 seconds and filtration for washing. This centrifugal separation and filtration step for washing was cyclically repeated for 5 times.
To the filter unit, charged was 5.0 mM Tris-acetate buffer (pH=7.4, 0.30 mL) dissolving 120 nmol/mL of the compound obtained in Production Example 3-1 and 500 nmol/mL of zinc acetate. The filter unit was brought to an equilibrium state for 5 minutes, and then, subjected to centrifugal separation at 2,000×g for 15 seconds and filtration. Next, 5.0 mM Tris-acetate buffer (pH=7.4, 0.30 mL) was charged in the filter unit, and subjected to centrifugal separation at 2,000×g for 15 seconds and filtration for washing. This centrifugal separation and filtration step for washing was cyclically repeated for 5 times. Further, 5.0 mM Tris-acetate buffer (pH=7.4, 0.30 mL) dissolving 10 nmol/mL of zinc acetate was charged in the filter unit, and subjected to centrifugal separation at 2,000×g for 15 seconds and filtration for washing. This centrifugal separation and filtration step for washing was cyclically repeated for 5 times.
To the filter unit, charged was 5.0 mM Tris-acetate buffer (pH=7.4, 0.30 mL) dissolving non-phosphorylated peptide p60c (p60c-src peptide 521–533, 14 nmol/mL) and phosphorylated peptide P-p60c (O-phosphoryl p60c-src peptide 521–533, 12 nmol/mL), as samples. The filter unit was brought to an equilibrium state for 5 minutes, and then, subjected to centrifugal separation at 2,000×g for 15 seconds and filtration. The obtained filtrate was taken out as a fraction 1.
Next, 5.0 mM Tris-acetate buffer (pH=7.4, 0.50M NaNO3, 0.30 mL) was charged in the filter unit, and the filter unit was subjected to centrifugal separation at 2,000×g for 15 seconds and filtration for 3 times. The filtrate obtained after the first filtration was taken out as a fraction 2, the filtrate after the second filtration was taken out as a fraction 3, and the filtrate after the third filtration was taken out as a fraction 4.
Furthermore, 1.0 mM buffer containing phosphoric acid-sodium hydroxide (pH=7.4, 0.50M NaNO3, 0.30 mL) was charged in the filter unit, and the filter unit was subjected to centrifugal separation at 2,000×g for 15 seconds and filtration for 2 times. The filtrate obtained after the first filtration was taken out as a fraction 5, and the filtrate after the second filtration was taken out as a fraction 6.
The contents of the peptide in the respective fractions 1 through 6 were quantitatively determined by high performance liquid chromatography (HPLC).
(§2) Analyzing conditions according to HPLC: • column: Capcell Pak C18 type UG80, 4.6 mm (diameter)×150 mm • mobile phase: acetonitrile:water=14:86(v/v), 0.1%(v/v) of trifluoroacetic acid • flow rate: 1 mL/min. • column temperature: 40° C. • detecting method: UV 266 nm • retention time: P-p60c (5.3 min.). p60c (13.4 min.)

Streptavidin agarose = biological target: T1, Streptavidin agarose (Streptomyces avidinii, UniProt P22629); assay: Same fractionation on Streptavidin agarose without the inventive complex compound (Comparative Example 1); conditions: inventive complex compound not included; for isolation/recovery rate of the peptide, fraction 7: step as fraction 1 (sample filtrate, Tris-acetate pH 7.4); for isolation/recovery rate of the peptide, fraction 8: step as fraction 2 (Tris-acetate, 0.50M NaNO3, first); for isolation/recovery rate of the peptide, fraction 9: step as fraction 3 (Tris-acetate, 0.50M NaNO3, second); for isolation/recovery rate of the peptide, fraction 10: step as fraction 4 (Tris-acetate, 0.50M NaNO3, third); for isolation/recovery rate of the peptide, fraction 11: step as fraction 5 (phosphate buffer, first); for isolation/recovery rate of the peptide, fraction 12: step as fraction 6 (phosphate buffer, second)
T1 construct: purchased Sigma-Aldrich Co
T1 sequence (P22629 25-183): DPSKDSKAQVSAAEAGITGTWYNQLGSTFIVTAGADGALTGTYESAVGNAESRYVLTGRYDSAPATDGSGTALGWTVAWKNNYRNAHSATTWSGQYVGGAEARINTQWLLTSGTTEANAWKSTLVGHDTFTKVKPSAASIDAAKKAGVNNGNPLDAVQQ
Protocol: as §2
as §1, with “of biotin;” for “of biotin:”, “0.5 mL,” for “0.5 mL”, “at” for “at centrifugal acceleration of”, “suspension. Then,” for “suspension.”, “unit, and” for “unit, then”
A process similar to the process in Experiment Example 2 was conducted with use of samples equivalent to the samples used in Experimental Example 2, using a filter unit (in this Comparative Example, the inventive complex compound was not included). Thus, fractions 7 through 12 were obtained.
HPLC analysis was conducted with respect to the fractions 7 through 12 in a similar manner as Experimental Example 2.

Row | Molecule | dyeing of proteins in the gel by the conventional dyeing process ([1]; same gel, FIG. 9 gel B) | selective adsorption of phosphorylated peptide ([2]; mixed sample of P-p60c and p60c, complex formed with zinc acetate, bonded to Streptavidin agarose) | isolation/recovery rate of the peptide to the total amount, fraction 1 [2] [%] | isolation/recovery rate of the peptide to the total amount, fraction 5 [2] [%] | isolation/recovery rate of the peptide to the total amount, fraction 2 [2] [%] | isolation/recovery rate of the peptide to the total amount, fraction 6 [2] [%] | isolation/recovery rate of the peptide to the total amount, fraction 3 [2] [%] | isolation/recovery rate of the peptide to the total amount, fraction 4 [2] [%] | isolation/recovery rate of the peptide, fraction 7 (Streptavidin agarose) [%] | isolation/recovery rate of the peptide, fraction 8 (Streptavidin agarose) [%] | isolation/recovery rate of the peptide, fraction 9 (Streptavidin agarose) [%] | isolation/recovery rate of the peptide, fraction 10 (Streptavidin agarose) [%] | isolation/recovery rate of the peptide, fraction 11 (Streptavidin agarose) [%] | isolation/recovery rate of the peptide, fraction 12 (Streptavidin agarose) [%] | identification (fluorescent labeling) of proteins in the gel ([1]; 1 μM compound + 100 μM zinc acetate, 10 mM Tris-acetate pH 7.4, 30 minutes, excitation 473 nm, FIG. 9 gel A)
1 | Coomassie brilliant blue | all the peptides were dyed | – | – | – | – | – | – | – | – | – | – | – | – | – | –
2 | N,N,N′-Tri(2-pyridylmethyl)-N′-[5-N″-2-(6-D-biotinamidohexacarboxyamidoethyl)carbamoyl-2-pyridylmethyl]-1,3-diaminopropane-2-ol [Production Example 3-1] | – | can adsorb selectively a phosphorylated peptide | – | – | – | – | – | – | – | – | – | – | – | – | –
3 | P-p60c: phosphorylated peptide P-p60c (O-phosphoryl p60c-src peptide 521–533) (DYFTSTEPQYQPG; also: O-phosphotyrosine, position not given here; UniProt P12931 521-533, looked up, fragment) | – | – | 0 | 83 | 0 | 17 | 0 | 0 | 83 | 17 | 0 | 0 | 0 | 0 | –
4 | O=C(NCCNC(=S)Nc1ccc(-c2c3ccc(=O)cc-3oc3cc(O)ccc23)c(C(=O)O)c1)c1ccc(CN(Cc2ccccn2)CC(O)CN(Cc2ccccn2)Cc2ccccn2)nc1 (stereo not drawn) [Production Example 8-1, N,N,N′-Tri(2-pyridylmethyl)-N′-[5-N″-(2-N-5-fluoresceinylthioureidoethyl)carbamoyl-2-pyridylmethyl]-1,3-diaminopropane-2-ol] | – | – | – | – | – | – | – | – | – | – | – | – | – | – | only 5: α-casein (phosphorylated), 7: β-casein (phosphorylated) and 9: pepsin (phosphorylated) to all of which the phosphoric acid has been bonded were identified exclusively
5 | p60c: non-phosphorylated peptide p60c (p60c-src peptide 521–533) (DYFTSTEPQYQPG; UniProt P12931 521-533, looked up, fragment) | – | – | 67 | 0 | 24 | 0 | 9 | 0 | 75 | 20 | 5 | 0 | 0 | 0 | –
